For data set [1], the system named is human.
The conditions of data set [2]: previous range about 170-174 pounds held for ten years.
The test system of data set [3] is human. The settings on record: cited from earlier work.

The structures appear in SMILES notation. Read-outs that look alike come from different tables or passages of the source.

As for `OCCOCCN1CCN(C2=Nc3ccccc3Sc3ccccc32)CC1` [quetiapine], the “drowsiness after getting up” value in data set [1] (quetiapine (Seroquel) alone, 75 mg reduced gradually to 50 mg) is listed as “leaving them drowsy, especially in the mornings”. In data set [1] (quetiapine alone, 25 mg), the “drowsiness after getting up” value is reported as “did not leave them drowsy after getting up”; the “time the drug had to be taken before going to bed” value was “an hour to an hour and a half”. In data set [1] (quetiapine alone, 25 mg plus additional quetiapine), the “grogginess after additional dose taken during the night” value is reported as “left them a bit groggy during the early part of the day”. In addition, in data set [2], the body weight is recorded as 184 pounds. Moreover, the “dosage ultimately required after development of tolerance” value in data set [3] (quetiapine, Mariani et al. report) is listed as 800 mg. Further, in data set [3] (quetiapine, background), the “time after ingestion before the drug enters the system” value was “about an hour or more”. Further, the “side effect at recommended amounts” value in data set [3] (quetiapine, Wikipedia, Seroquel prescribing information) was “somnolence (drowsiness)”.

Regarding `Cc1ccc(-c2nc3ccc(C)cn3c2CC(=O)N(C)C)cc1` [zolpidem], the “ability to sleep without the drug (dependence)” value in data set [1] (after extended use of zolpidem alone) was “unable to sleep without zolpidem”. Further, the “time asleep before getting up to empty their bladder” value in data set [1] (inventor, nightly use) is on record as “four or even three”. For the same compound, the “time kept asleep per dose” value in data set [1] (zolpidem (Ambien) alone) is “about four”. For the same compound, in data set [3] (zolpidem alone, background), the duration of effectiveness result is “about four” and the “time of use after which tolerance can develop” value is “just a few weeks”. For the same compound, the “period of use after which the drug becomes addictive” value in data set [3] (zolpidem alone, Kirkwood, Mariani et al.) was “about two months or longer”. Further, the “effectiveness in maintaining sleep” value in data set [3] (zolpidem, Wikipedia, Rosenberg 2006) is listed as “has not adequately demonstrated effectiveness in maintaining sleep”.

Source of the values: US8741888B2, “Sleep aid composition and method” (priority 2010, dated 2014).
